# Experimental data: US20210177861A1, “NRF2 ACTIVATOR FOR THE TREATMENT OF ACUTE LUNG INJURY, ACUTE RESPIRATORY DISTRESS SYNDROME AND MULTIPLE ORGAN DYSFUNCTION SYNDROME” (GLAXOSMITHKLINE INTELLECTUAL PROPERTY DEVELOPMENT LIMITED, priority 2017, published 2021)
# “Also recorded” adds a separate entry of the source.
# Assays:
# [1] = test system: animals with hyperoxia-induced ALI; details: animals treated with Bardoxolone; cited from earlier work
# mice exposed to ozone = test: Repeated ozone exposure, alveolar barrier breakdown (serum surfactant protein-D, mtDNA); format: in vivo, mouse; details: FIG. 6
# Description: Mice were exposed to ozone (1.5 ppm) for 3 hrs, twice per week for 3 weeks. Compound 1 was administered for 5 days/week, with the first dose administered 1 hour prior to first ozone administration. Blood/serum was collected 2 hrs after the final ozone exposure. Surfactant protein-D was measured using a commercially available ELISA kit. All data represent mean+/−S.E.M.
# For determination of mtDNA damage (21), 15 ng of DNA in long chain PCR buffer was coupled with appropriate long and short primers for murine tissues. The reaction mixture was essentially the same for both long and short runs with the exception that the [Mg++] was 1.2 and 1.1 mM, respectively. For mouse tissues, the following thermocycler conditions were utilized: 94° C.×2 min followed by 19 cycles at 94° C.×15 sec, 64° C.×30 sec, 68° C.×8 min and finished at 72° C.×7 min; 94° C.×2 min, 94° C.×15 sec, 60° C.×30 sec, 72° C.×45 sec, and finished at 72° C.×7 min for the long and short PCR, respectively. The long and short primer sequences for mouse;
# For both species, the long and short PCR products were then diluted 1:10 with Tris EDTA buffer containing 5 μl/ml of Pico Green (Molecular Probes, Invitrogen, Carlsbad Calif.) and fluorescence was monitored (485 nm excitation/528 nm emission, Envision Perkin Elmer, Waltham, Mass.). The replicates for each sample were averaged, the long primer was subtracted from the short primer, and transformed into percent of control using normalization functions (GraphPad Prism v6.0, La Jolla, Calif.). The data were calculated to reflect an increase in damage by subtracting the long primer from the short primer, rather than the opposite which would show the reduction of signal.
# Surfactant protein-D (SP-D) was measured using a commercially available kit (Mouse Quantikine SP-D, R&D Systems #MSFPDO, Minneapolis, Minn.). Absorbances were monitored at 450 and 540 nm using a microplate spectrophotometer (Powerwave, BioTek, Winooski, Vt.) with Gen5 software (version 2.03.Ink). […] Degradation or breakdown of alveolar barrier and leakage of water into the alveolar is measured by wet:dry ratio. […]
# paraquat-treated rats = test: PQ-induced acute lung injury model (tracheal instillation of paraquat); format: in vivo, rat
# From the text: The model of PQ-induced increase in lung edema formation described in Rumsey, W., et al., (Mutagenesis. 2017, 32(3):343-353) is incorporated by reference in its entirety. In support of this invention, ALI was stimulated by the tracheal instillation of PQ which damages mtDNA in lung cells and provokes a loss of epithelial/endothelial integrity and edema formation.
# Age-matched male Lewis rats (250-400 g, Charles River Breeding Laboratories, Wilmington, Mass.) were allowed free access to food and water. Animals were administered NRF2 compound via tracheal instillation 24 hours prior to oxidative insult.
# For studies using PQ (or N,N′-dimethyl-4,4′-[…], Sigma Aldrich, St Louis, Mo.) as the toxin, aliquots were prepared in sterile phosphate-buffered saline (PBS) and instilled directly to the trachea of the rat while under isoflurane anesthesia. Rats were anesthetized in a small acrylic induction box with 2-5% isoflurane gas. When surgical anesthesia was obtained (assessed by loss of the righting reflex followed by use of the pedal withdrawal reflex), the rat was removed from the box and placed supine on a head up, tilted platform. The trachea was illuminated and either PQ or vehicle (300 μl, doses identified in figure legends) was directly instilled into the trachea, anterior to the primary bifurcation at the carina, using a blunt-tipped needle. The animal was returned to a recovery cage, where the righting reflex was regained in 2-3 minutes.
# To monitor changes in airway mechanics, rats were placed into individual plethysmograph chambers (BUXCO Electronics, Troy, N.Y.). Fresh air was supplied by bias flow pumps to the chambers. Baseline respiratory (Penh) values were collected prior to administration of PQ and on succeeding days after administration of the agent. An average Penh was calculated for a period of 5 min where enhanced pause (Penh=[(expiratory time/relaxation time)−1]×(peak expiratory flow/peak inspiratory flow)) and relaxation time is the amount of time required for 70% of the tidal volume to be expired.
# For measurements of edema formation in the lungs, the tissue was excised and weighed gravimetrically. A portion was dried overnight in an oven at […]. and weighed for dry weight.
# In some studies, bronchoalveolar lavage was performed to identify the immune cells infiltrating the lung in response to the toxicant. After the animals were euthanized (Fatal Plus, 100 mg/kg i.p.), the trachea was surgically exposed and a blunt-tipped needle was inserted into the trachea for administration of lavage fluid (5×5 ml Dulbecco's phosphate buffered saline, PBS). The lavage fluid was collected, placed on ice and centrifuged (3000 rpm×10 min, Beckman-Coulter, Danvers, Mass.). Supernatant was aspirated and frozen whereas the pellet was resuspended in 5 ml of PBS. An aliquot (100 μl) was centrifuged (300 rpm×5 min, cytospin, Thermo-Shandon, Waltham, Mass.) and a separate sample prepared as 1:5 dilution for total cell counts using a hemocytometer. Aliquots of cells were placed on slides and stained (Kwik-Diff-Quick, Thermo-Shandon, Waltham, Mass.) according to manufacturer's instructions. At least 200 cells were counted and percentages of different cell types were calculated (macrophages and neutrophils).
# For extraction of either RNA or DNA, the tissue was added to lysis buffer (Kingfisher DNA or RNA extraction kit, Thermo Fisher Scientific, Waltham, Mass.) and the samples were processed according to the manufacturer's instructions. The nucleotide quantities were determined with respective Qubit kits (Thermo Fisher, Waltham, Mass.). For measurement of mtDNA copy number by quantitative real time PCR, nuclear and mitochondrial primer sets (1 pmol/μl), and 2× SYBR green master mix (Life Technologies, Waltham, Mass.) were added to 50 ng of DNA combined with water (total 20 ul). […]
# rats exposed to ozone [2] = test: Severe ozone exposure (faulty ventilation, ozone above intended 1 ppm): death and glutathione; format: in vivo, rat
# From the text: FIG. 5 depicts the protection offered by NRF2 activator Compound I against ozone-induced death (FIG. 5A) and loss of glutathione (FIG. 5B). Due to an unknown faulty ventilation system, ozone in the chamber built up to levels (unable to quantify) above those normally used in other studies. The intended exposure was 1 ppm. For those animals that survived, tissue values of NRF2-related parameters were examined 24 hrs. after ozone exposure. In addition, animals exposed to ozone within the control group were combined. All data represent means±S.E.M. (*, **, *** refer to p<0.05, 0.01 and 0.001, respectively). […]
# (§1) In another study, rats were exposed to ozone (2.0 ppm) for a 3 hr period twice a week with a resting period of 2 days between treatments. […] Ozone was generated (Oxycycler ozonator (model# A84ZV, Biospherix Inc., Lacona, N.Y.) by passing room air through the ozonator at a rate of 50-75 cm^3/min, mixing it with filtered room air at a rate of 10 L/min, and flowing this sample into a Plexiglass chamber containing the rodents. Ozone, carbon dioxide and humidity levels in the chamber were constantly monitored (Ozone Monitor Model 450, Teledyne Advanced Pollution Instrumentation, Inc., Thousand Oaks, Calif.). The animals were euthanized as described above 24 hrs after the last exposure to ozone. See FIG. 4-5.
# rats exposed to ozone [3] = test: Ozone-induced lung injury (1 ppm of ozone for 3 hours); format: in vivo, rat; details: 3 μmol/kg i.t. 24 hours prior to 1 ppm ozone for 3 hours, sacrificed four hrs later
# Description: FIG. 4 depicts the effect of NRF2 activator Compound I on ozone-induced changes in lung wet to dry weight ratio (FIG. 4A) and relative mtDNA copy number (FIG. 4B). Rats were administered the NRF2 activator (3 μmol/kg i.t.) 24 hours prior to ozone exposure (1 ppm of ozone for 3 hours). Four hrs later the animals were sacrificed. All data represent means±S.E.M. (*, **, *** refer to p<0.05, 0.01 and 0.001, respectively).
# Age-matched male Lewis rats (250-400 g, Charles River Breeding Laboratories, Wilmington, Mass.) were allowed free access to food and water. Animals were administered NRF2 compound via tracheal instillation 24 hours prior to oxidative insult. […]
# as §1, with “4-5. […]” for “4-5.”
# [4] = test system: murine model of PQ-induced ALI; details: treatment with DNasel; cited from earlier work
# [5] = relative to the PQ treated vehicle control animals, FIG. 3
molecule,measurement,setting,value
CC1(C)CC[C@]2(C(=O)O)CC[C@]3(C)[C@H](C(=O)C=C4[C@@]5(C)C=C(C#N)C(=O)C(C)(C)[C@@H]5CC[C@]43C)[C@@H]2C1 [Bardoxolone],protection from hyperoxia-induced ALI,[1],protected them from hyperoxia-induced ALI
"CC[C@@H]1CN(Cc2cc([C@H](CC(=O)O)c3ccc4c(nnn4CC)c3C)ccc2C)S(=O)(=O)c2cccnc2O1 [Compound I, (S)-3-(3-(((R)-4-ethyl-1,1-dioxido-3,4-dihydro-2H-pyrido[2,3-b][1,4,5]oxathiazepin-2-yl)methyl)-4-methylphenyl)-3-(1-ethyl-4-methyl-1H-benzo[d][1,2,3]triazol-5-yl)propanoic acid]",degradation or breakdown of the alveolar barrier,"mice exposed to ozone; mice, ozone 1.5 ppm 3 hrs twice per week for 3 weeks",prevented; also recorded: protective effect
same,"surfactant D (serum surfactant protein-D), biomarker of epithelial/alveolar barrier integrity","mice exposed to ozone; mice, ozone 1.5 ppm 3 hrs twice per week for 3 weeks, dosing 5 days/week, serum 2 hrs after final ozone exposure",dose dependently prevented
same,changes in mtDNA,mice exposed to ozone; repeated ozone exposures,dose dependently prevented
same,inflammatory immune cells in bronchoalveolar lavage fluid (macrophages and neutrophils),"paraquat-treated rats; paraquat-treated rats, FIG. 2",decreased numbers of immune cells in the bronchoalveolar lavage fluid; also recorded: reduction in inflammatory immune cells
same,NQO1 activity (NRF2-mediated gene expression),"paraquat-treated rats; rat lung, PQ-treated, FIG. 3B",stimulated an upregulation of NQO1 activity
same,DNA oxidation (8-OHdG levels),"paraquat-treated rats; rat lung, PQ-treated, FIG. 3C",attenuating the impact of PQ on DNA oxidation
same,PQ-mediated mtDNA damage (relative mtDNA copy number),"paraquat-treated rats; rat lung, FIG. 3A",blockade of mtDNA damage; also recorded: prevented
same,"lung function, expressed as Penh","paraquat-treated rats; rats, Compound I suspension i.t. 24 hrs prior to PQ (0.05 mg/kg i.t.), FIG. 1A",improves lung function
same,"lung edema formation, lung wet:dry weight ratio","paraquat-treated rats; rats, Compound I suspension i.t. 24 hrs prior to PQ (0.05 mg/kg i.t.), FIG. 1B",maintenance of the lung wet:dry ratio; also recorded: protecting against the PQ-induced increase in lung edema formation
same,TXNRD1 gene expression,paraquat-treated rats; [5],exception
same,"expression of other NRF2 genes (GCLC, HO-1, etc.)",paraquat-treated rats; [5],up-regulated
same,ozone-induced death (survival),"rats exposed to ozone [2]; severe ozone exposure, level unable to quantify (intended 1 ppm), FIG. 5A",protection; also recorded: survive the lethal insult
same,ozone-induced loss of glutathione,"rats exposed to ozone [2]; surviving animals, tissue 24 hrs after ozone exposure, FIG. 5B",protection
same,ozone-induced edema formation (lung wet to dry weight ratio),rats exposed to ozone [3]; FIG. 4A,protected
same,ozone-induced mtDNA damage (relative mtDNA copy number),rats exposed to ozone [3]; FIG. 4B,protected
"DNasel: DNasel, presumably targeting expulsed mtDNA (protein, UniProt P24855 23-282, looked up) Deoxyribonuclease-1: LKIAAFNIQTFGETKMSNATLVSYIVQILSRYDIALVQEVRDSHLTAVGKLLDNLNQDAPDTYHYVVSEPLGRNSYKERYLFVYRPDQVSAVDSYYYDDGCEPCGNDTFNREPAIVRFFSRFTEVREFAIVPLHAAPGDAVAEIDALYDVYLDVQEKWGLEDVMLMGDFNAGCSYVRPSQWSSIRLWTSPTFQWLIPDSADTTATPTHCAYDRIVVAGMLLRGAVVPDSALPFNFQAAYGLSDQLAQAISDHYPVEVMLK",PQ-induced lung injury and survival,[4],Protection from PQ-induced lung injury and survival
